Measured values as given in patent publication US20240287121A1, “GALECTIN-3 INHIBITING C-GLYCOSIDE OXIMES” (GLYCOMIMETICS, INC., priority 2021, published 2024).

Target: T1, galectin-3 (Homo sapiens, UniProt P17931)
T1 construct: purchased IBL IBATGPO414
Assay: Galectin-3 Activity ELISA assay: inhibition of binding of galectin-3 to immobilized Galβ1-3GlcNAc polymer
Details: competitive ELISA; Galβ1-3GlcNAc polymer on streptavidin plate; A450 readout; read-out: Galectin-3 Antagonist Activity IC50
Description: An inhibition assay may be used to screen for antagonists of galectin-3. For example, an assay may be performed to characterize the capability of a compound described herein to inhibit interaction of galectin-3 with a Galβ1-3GlcNAc carbohydrate structure. The inhibition assay may be a competitive binding assay, which allows the determination of IC50 values. By way of example, a Galβ1-3GlcNAc polymer may be immobilized onto a matrix; a composition may be added to reduce nonspecific binding; the immobilized Galβ1-3GlcNAc polymer may be contacted with the candidate compound in the presence of galectin-3 group under conditions and for a time sufficient to permit galectin-3 to bind to the immobilized Galβ1-3GlcNAc polymer; the immobilized Galβ1-3GlcNAc polymer may be washed; and the amount of galectin-3 bound to the immobilized Galβ1-3GlcNAc polymer may be detected. Variations of such steps can be readily and routinely accomplished by a person of ordinary skill in the art.
Galectin-3 antagonists were evaluated for their ability to inhibit binding of galectin-3 to a Galβ1-3GlcNAc carbohydrate structure. The detailed protocol was as follows. A 1 μg/mL suspension of a Galβ1-3GlcNAcβ-3Galβ1-4GlcNAcβ-PAA-biotin polymer (Glycotech, catalog number 01-096) was prepared. A 100 μL aliquot of the polymer was added to the wells of a 96-well streptavidin-coated plate (R&D Systems, catalog number CP004). A 100 μL aliquot of 1× Tris Buffered Saline (TBS, Sigma, catalog number T5912-10×) was added to control wells. The polymer was allowed to bind to the streptavidin-coated wells for 1.5 hours at room temperature. The contents of the wells were discarded and 200 μL of 1×TBS containing 1% bovine serum albumin (BSA) was added to each well as a blocking reagent, and the plate was kept at room temperature for 30 minutes. The wells were washed three times with 1×TBS containing 0.1% BSA. A serial dilution of test compounds was prepared in a separate V-bottom plate (Corning, catalog number 3897). A 75 μL aliquot of the highest concentration of the compound to be tested was added to the first well in a column of the V-bottom plate, then 15 μl were serially transferred into 60 μL 1×TBS through the remaining wells in the column to generate a 1 to 5 serial dilution. A 60 μL aliquot of 2 ug/mL galectin-3 (IBL, catalog number IBATGPO414) was added to each well in the V-bottom plate. A 100 μL aliquot of the galectin-3/test compound mixture was transferred from the V-bottom plate into the assay plate containing the Galβ1-3GlcNAc polymer. Four sets of control wells in the assay plate were prepared in duplicate containing 1) both Galβ1-3GlcNAc polymer and galectin-3, 2) neither the polymer nor galectin-3, 3) galectin-3 only, no polymer, or 4) polymer only, no galectin-3. The plate was gently rocked for 1.5 hours at room temperature. The wells were washed four times with TBS/0.1% BSA. A 100 μL aliquot of anti-galectin-3 antibody conjugated to horse radish peroxidase (R&D Systems, from DGAL30 kit) was added to each well and the plate was kept at room temperature for 1 hour. The wells were washed four times with TBS/0.1% BSA. A 100 μL aliquot of TMB substrate solution was added to each well. The TMB substrate solution was prepared by making a 1:1 mixture of TMB Peroxidase Substrate (KPL, catalog number 5120-0048) and Peroxidase Substrate Solution B (KPL, catalog number 5120-0037). The plate was kept at room temperature for 10 to 20 minutes. The color development was stopped by adding 100 μL 10% phosphoric acid (RICCA Chemical Co., catalog number 5850-16). The absorbance at 450 nm (A450) was measured using a FlexStation 3 plate reader (Molecular Devices). Plots of A450 versus test compound concentration and IC50 determinations were made using GraphPad Prism 6.

T1 sequence (P17931 whole entry): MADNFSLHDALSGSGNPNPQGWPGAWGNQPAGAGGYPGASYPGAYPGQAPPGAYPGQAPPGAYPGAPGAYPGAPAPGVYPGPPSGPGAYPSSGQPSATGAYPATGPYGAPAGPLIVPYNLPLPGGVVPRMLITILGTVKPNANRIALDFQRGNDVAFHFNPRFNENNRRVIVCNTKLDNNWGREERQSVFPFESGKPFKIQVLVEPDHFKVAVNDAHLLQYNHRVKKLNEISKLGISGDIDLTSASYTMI

Row | Structure (SMILES) | IC50 [µM]
1 | [2H]C([2H])([2H])OC1C(n2cc(-c3cc(F)c(F)c(F)c3)nn2)[C@@H](O)C(CO)O[C@H]1[C@H](OCc1ccc(Cl)cc1)C(C)=NOCC (stereo partly shown) [Compound 36] | 10.3
2 | [2H]C([2H])([2H])OC1C(n2cc(-c3cc(F)cc(F)c3)nn2)[C@@H](O)C(CO)O[C@H]1[C@H](OCc1ccc(Cl)cc1)/C(=N/OC)C([2H])([2H])C([2H])([2H])[2H] (stereo partly shown) [Compound 35] | 6.9
3 | CCC(=NOC)[C@@H](OCc1ccc(Cl)cc1)[C@@H]1OC(CO)[C@H](O)C(n2cc(-c3cc(F)c(F)c(F)c3)nn2)C1O (stereo partly shown) [Compound 34] | 0.5

More lines, now with the values ahead:

Row | IC50 [µM] | Structure (SMILES)
4 | 10.6 | [2H]C([2H])([2H])OC1C(n2cc(-c3cc(F)c(F)c(F)c3)nn2)[C@@H](O)C(CO)O[C@H]1[C@H](OCc1ccc(Cl)cc1)C(C)=NOCC1CC1 (stereo partly shown) [Compound 37]
5 | 2.8 | CCC(=NOCC1CC1)[C@@H](OCc1ccc(Cl)cc1)[C@@H]1OC(CO)[C@H](O)C(n2cc(-c3cc(F)c(F)c(F)c3)nn2)C1O (stereo partly shown) [Compound 41]
6 | 0.9 | CCON=C(CC)C(OCc1ccc(Cl)cc1)C1OC(CO)C(O)C(n2cc(-c3cc(F)c(F)c(F)c3)nn2)C1O (stereo not shown) [Compound 40]
7 | 16.7 | [2H]C([2H])([2H])OC1C(n2cc(-c3cc(F)c(F)c(F)c3)nn2)[C@@H](O)C(CO)O[C@H]1[C@H](OCc1ccc(Cl)cc1)C(C)=NOCC(C)C (stereo partly shown) [Compound 38]
